The results in this text go back to patent US8846698B2, “Pyrrolo[2,3-d]pyrimidine tropomysin-related kinase inhibitors” (Pfizer Limited, priority 2011, dated 2014).

This assay deals with TRKA (Homo sapiens (Human), UniProt P04629). Briefly: Isolated TRK enzyme assay (HTRF KinEASE-TK), TRKA. In kind it is biochemical. Particulars: read-out: Trka enzyme (IC50). (In general: TR-FRET usually uses a lanthanide donor and a delayed reading to cut background.)
TRKA, sequence (P04629 441-796): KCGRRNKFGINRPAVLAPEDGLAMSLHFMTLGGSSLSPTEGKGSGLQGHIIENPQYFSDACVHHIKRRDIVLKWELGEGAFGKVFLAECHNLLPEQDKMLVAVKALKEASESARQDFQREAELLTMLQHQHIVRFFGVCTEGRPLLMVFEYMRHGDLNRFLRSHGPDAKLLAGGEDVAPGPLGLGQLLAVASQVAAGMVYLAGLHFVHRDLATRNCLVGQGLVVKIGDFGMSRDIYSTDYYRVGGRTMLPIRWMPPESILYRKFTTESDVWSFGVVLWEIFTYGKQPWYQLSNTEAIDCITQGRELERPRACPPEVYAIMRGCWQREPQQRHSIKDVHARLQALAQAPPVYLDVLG

Regarding `CC(C(=O)N(C)C)n1cc(C(=O)c2cncc(NC(=O)Cc3ccc(Cl)cc3)c2)c2cncnc21` (racemic) [Example 230, 2-{5-[(5-{[(4-Chlorophenyl)acetyl]amino}pyridin-3-yl)carbonyl]-7H-pyrrolo[2,3-d]pyrimidin-7-yl}-N,N-dimethylpropanamide], the IC50 (commonly the concentration that inhibits the measured activity by half) came out at 63.7 nM.
As to `CC(CO)n1cc(C(=O)c2cncc(NC(=O)Cc3ccc4cccnc4c3)c2)c2cnc(N)nc21` (single isomer, unassigned) [Example 211, N-(5-{[2-amino-7-(2-hydroxy-1-methylethyl)-7H-pyrrolo[2,3-d]pyrimidin-5-yl]carbonyl}pyridin-3-yl)-2-quinolin-7-ylacetamide], the IC50 amounted to 34.9 nM.
The result for `CC(CO)n1cc(C(=O)c2cncc(NC(=O)Cc3ccc(C#N)cc3)c2)c2cnc(N)nc21` (single isomer, unassigned) [Example 212, N-(5-{[2-amino-7-(2-hydroxy-1-methylethyl)-7H-pyrrolo[2,3-d]pyrimidin-5-yl]carbonyl}pyridin-3-yl)-2-(4-cyanophenyl)acetamide] reads 59 nM; that for `CC(CO)n1cc(C(=O)c2cncc(NC(=O)Cc3cccc(C(F)(F)F)c3)c2)c2cnc(N)nc21` (single isomer, unassigned) [Example 213, N-(5-{[2-amino-7-(2-hydroxy-1-methylethyl)-7H-pyrrolo[2,3-d]pyrimidin-5-yl]carbonyl}pyridin-3-yl)-2-[3-(trifluoromethyl)phenyl]acetamide], 3.03 nM; that for `CC(CO)n1cc(C(=O)c2cncc(NC(=O)Cc3ccc(C#N)cc3)c2)c2cnc(N)nc21` (single isomer, unassigned) [Example 214, N-(5-{[2-amino-7-(2-hydroxy-1-methylethyl)-7H-pyrrolo[2,3-d]pyrimidin-5-yl]carbonyl}pyridin-3-yl)-2-(4-cyanophenyl)acetamide], 65.9 nM.
With `CC(CO)n1cc(C(=O)c2cncc(NC(=O)Cc3cccc(C(F)(F)F)c3)c2)c2cnc(N)nc21` (single isomer, unassigned) [Example 215, N-(5-{[2-amino-7-(2-hydroxy-1-methylethyl)-7H-pyrrolo[2,3-d]pyrimidin-5-yl]carbonyl}pyridin-3-yl)-2-[3-(trifluoromethyl)phenyl]acetamide], the 50% inhibitory concentration (IC50) stood at 4.4 nM.
The result for `CC(CO)n1cc(C(=O)c2cncc(NC(=O)Cc3ccc4cccnc4c3)c2)c2cnc(N)nc21` (single isomer, unassigned) [Example 216, N-(5-{[2-amino-7-(2-hydroxy-1-methylethyl)-7H-pyrrolo[2,3-d]pyrimidin-5-yl]carbonyl}pyridin-3-yl)-2-quinolin-7-ylacetamide] reads 31.6 nM; that for `CC(C)n1cc(C(=O)c2cncc(NC(=O)Cc3ccc(F)cc3)c2)c2cncnc21` [Example 65, 2-(4-fluorophenyl)-N-{5-[(7-isopropyl-7H-pyrrolo[2,3-d]pyrimidin-5-yl)carbonyl]pyridin-3-yl}acetamide], 55.6 nM; that for `CC(C)n1cc(C(=O)c2cncc(NC(=O)Cc3cccc(C(F)(F)F)c3)c2)c2cncnc21` [Example 66, N-{5-[(7-isopropyl-7H-pyrrolo[2,3-d]pyrimidin-5-yl)carbonyl]pyridin-3-yl}-2-[3-(trifluoromethyl)phenyl]acetamide], 3.55 nM.
Turning to `CC(C)n1cc(C(=O)c2cncc(NC(=O)Cc3ccc(C(F)(F)F)cc3)c2)c2cncnc21` [Example 67, N-{5-[(7-isopropyl-7H-pyrrolo[2,3-d]pyrimidin-5-yl)carbonyl]pyridin-3-yl}-2-[4-(trifluoromethyl)phenyl]acetamide], the IC50 is 4.15 nM.
As to `CC(C)n1cc(C(=O)c2cncc(NC(=O)Cc3ccc(Cl)c(Cl)c3)c2)c2cncnc21` [Example 68, 2-(3,4-dichlorophenyl)-N-{5-[(7-isopropyl-7H-pyrrolo[2,3-d]pyrimidin-5-yl)carbonyl]pyridin-3-yl}acetamide], the IC50 was found to be 12.1 nM.
Turning to `CC(C)n1cc(C(=O)c2cncc(NC(=O)Cc3ccc(Cl)cc3)c2)c2cncnc21` [Example 69, 2-(4-chlorophenyl)-N-{5-[(7-isopropyl-7H-pyrrolo[2,3-d]pyrimidin-5-yl)carbonyl]pyridin-3-yl}acetamide], the half-maximal inhibitory concentration (IC50) amounted to 10.9 nM.
The result for `CC(C)n1cc(C(=O)c2cncc(NC(=O)Cc3ccccc3OC3CC3)c2)c2cncnc21` [Example 70, 2-[2-(cyclopropyloxy)phenyl]-N-{5-[(7-isopropyl-7H-pyrrolo[2,3-d]pyrimidin-5-yl)carbonyl]pyridin-3-yl}acetamide] reads 22.8 nM; that for `CC(C)n1cc(C(=O)c2cncc(NC(=O)Cc3ccc(C#N)c(C(F)(F)F)c3)c2)c2cncnc21` [Example 72, 2-[4-cyano-3-(trifluoromethyl)phenyl]-N-{5-[(7-isopropyl-7H-pyrrolo[2,3-d]pyrimidin-5-yl)carbonyl]pyridin-3-yl}acetamide], 63.3 nM.
The result for `CC(C)n1cc(C(=O)c2cncc(NC(=O)Cc3ccc(OC4CC4)cc3)c2)c2cncnc21` [Example 73, 2-[4-(cyclopropyloxy)phenyl]-N-{5-[(7-isopropyl-7H-pyrrolo[2,3-d]pyrimidin-5-yl)carbonyl]pyridin-3-yl}acetamide] reads 283 nM; that for `CC(C)n1cc(C(=O)c2cncc(NC(=O)Cc3cccc(OC4CC4)c3)c2)c2cncnc21` [Example 74, 2-[3-(cyclopropyloxy)phenyl]-N-{5-[(7-isopropyl-7H-pyrrolo[2,3-d]pyrimidin-5-yl)carbonyl]pyridin-3-yl}acetamide], 1210 nM; that for `CC(C)n1cc(C(=O)c2cncc(NC(=O)Cc3cccc(CO)c3)c2)c2cncnc21` [Example 75, 2-[3-(hydroxymethyl)phenyl]-N-{5-[(7-isopropyl-7H-pyrrolo[2,3-d]pyrimidin-5-yl)carbonyl]pyridin-3-yl}acetamide], 567 nM.
The result for `CC(C)n1cc(C(=O)c2cncc(NC(=O)Cc3ccc(C#N)c(F)c3)c2)c2cncnc21` [Example 76, 2-(4-cyano-3-fluorophenyl)-N-{5-[(7-isopropyl-7H-pyrrolo[2,3-d]pyrimidin-5-yl)carbonyl]pyridin-3-yl}acetamide] reads 173 nM.
As to `COc1cc(CC(=O)Nc2cncc(C(=O)c3cn(C(C)C)c4ncncc34)c2)ccc1C#N` [Example 77, 2-(4-cyano-3-methoxyphenyl)-N-{5-[(7-isopropyl-7H-pyrrolo[2,3-d]pyrimidin-5-yl)carbonyl]pyridin-3-yl}acetamide], the IC50 is 64.3 nM.
The result for `CC(C)n1cc(C(=O)c2cncc(NC(=O)CN3Cc4ccc(F)cc4C3=O)c2)c2cncnc21` [Example 78, 2-(6-fluoro-1-oxo-1,3-dihydro-2H-isoindol-2-yl)-N-{5-[(7-isopropyl-7H-pyrrolo[2,3-d]pyrimidin-5-yl)carbonyl]pyridin-3-yl}acetamide] reads 203 nM; that for `CC(C)n1cc(C(=O)c2cncc(NC(=O)Cn3ccc(-c4ccccn4)n3)c2)c2cncnc21` [Example 79, N-{5-[(7-isopropyl-7H-pyrrolo[2,3-d]pyrimidin-5-yl)carbonyl]pyridin-3-yl}-2-(3-pyridin-2-yl-1H-pyrazol-1-yl)acetamide], 1580 nM.
The result for `CC(C)n1cc(C(=O)c2cncc(NC(=O)Cc3ccc4[nH]cnc4c3)c2)c2cncnc21` [Example 80, 2-(1H-benzimidazol-5-yl)-N-{5-[(7-isopropyl-7H-pyrrolo[2,3-d]pyrimidin-5-yl)carbonyl]pyridin-3-yl}acetamide] reads 392 nM; that for `CC(C)n1cc(C(=O)c2cncc(NC(=O)Cc3ccc4nccnc4c3)c2)c2cncnc21` [Example 81, N-{5-[(7-isopropyl-7H-pyrrolo[2,3-d]pyrimidin-5-yl)carbonyl]pyridin-3-yl}-2-quinoxalin-6-ylacetamide], 197 nM; that for `CC(C)n1cc(C(=O)c2cncc(NC(=O)Cc3cnc4cccnc4c3)c2)c2cncnc21` [Example 82, N-{5-[(7-isopropyl-7H-pyrrolo[2,3-d]pyrimidin-5-yl)carbonyl]pyridin-3-yl}-2-(1,5-naphthyridin-3-yl)acetamide], 908 nM.
The result for `CC(C)n1cc(C(=O)c2cncc(NC(=O)Cc3ccc4onc(N)c4c3)c2)c2cncnc21` [Example 83, 2-(3-amino-1,2-benzisoxazol-5-yl)-N-{5-[(7-isopropyl-7H-pyrrolo[2,3-d]pyrimidin-5-yl)carbonyl]pyridin-3-yl}acetamide] reads 355 nM; that for `CC(C)n1cc(C(=O)c2cncc(NC(=O)Cc3ccc4[nH]c(C(F)(F)F)nc4c3)c2)c2cncnc21` [Example 84, N-{5-[(7-isopropyl-7H-pyrrolo[2,3-d]pyrimidin-5-yl)carbonyl]pyridin-3-yl}-2-[2-(trifluoromethyl)-1H-benzimidazol-5-yl]acetamide], 2860 nM.
Take `CC(C)n1cc(C(=O)c2cncc(NC(=O)Cc3ccn4ccnc4c3)c2)c2cncnc21` [Example 85, 2-imidazo[1,2-a]pyridin-7-yl-N-{5-[(7-isopropyl-7H-pyrrolo[2,3-d]pyrimidin-5-yl)carbonyl]pyridin-3-yl}acetamide]: the IC50 came to 70.8 nM.
The result for `CC(C)n1cc(C(=O)c2cncc(NC(=O)Cn3ncc4ncccc43)c2)c2cncnc21` [Example 86, N-{5-[(7-isopropyl-7H-pyrrolo[2,3-d]pyrimidin-5-yl)carbonyl]pyridin-3-yl}-2-(1H-pyrazolo[4,3-b]pyridin-1-yl)acetamide] reads 95.5 nM; that for `CC(C)n1cc(C(=O)c2cncc(NC(=O)Cc3cccc(S(C)(=O)=O)c3)c2)c2cncnc21` [Example 87, N-{5-[(7-isopropyl-7H-pyrrolo[2,3-d]pyrimidin-5-yl)carbonyl]pyridin-3-yl}-2-[3-(methylsulfonyl)phenyl]acetamide], 63.2 nM.
Regarding `CC(C)n1cc(C(=O)c2cncc(NC(=O)Cn3cc(C4CC4)nn3)c2)c2cncnc21` [Example 88, 2-(4-cyclopropyl-1H-1,2,3-triazol-1-yl)-N-{5-[(7-isopropyl-7H-pyrrolo[2,3-d]pyrimidin-5-yl)carbonyl]pyridin-3-yl}acetamide], the IC50 worked out at 56.6 nM.
The result for `CC(C)n1cc(C(=O)c2cncc(NC(=O)Cc3ccc4ocnc4c3)c2)c2cncnc21` [Example 89, 2-(1,3-benzoxazol-5-yl)-N-{5-[(7-isopropyl-7H-pyrrolo[2,3-d]pyrimidin-5-yl)carbonyl]pyridin-3-yl}acetamide] reads 21.7 nM.
